Laboratory results: US8633251B2, “Derivatives of aminoalkanols, method of obtaining of aminoalkanols and their use” (Uniwersytet Jagiellonski, priority 2008, dated 2014)

Key:
[1] = tested on: maximal electroshock seizures; test: Maximum Electroshock Seizure (MES) test, mice; assay type: in vivo; conditions: mice
Description: (§1) In order to define anticonvulsant activity, screening tests were performed, using animal models of seizures. […] Each substance (after dissolving in methylcellulose) was normally tested in doses 30, 100, and 300 mg/kg body weight (b.w.) (mice) or in 30 and 50 mg/kg b.w. (rats) in two possible routes of administration: intraperitoneal (i.p.) or oral (p.o.). Appropriate tests were performed 0.5 and 4 h after administration of the compound. […] (mice) the tests were also performed in doses 10 and 3 mg/kg b.w.
Maximum Electroshock Seizure (MES) test is an electric test, verifying activity towards generalized tonic-clonic seizures (grand mal epilepsy). […] Its procedure consists in administration to an animal a mentioned dose, and after 0.5 or 4 h attaching corneal electrodes (after anesthetic eye-drops: 0.5% tetracaine hydrochloride in 0.9% NaCl) and turning on electric current (60 Hz, 0.2 s, 50 mA (mice) or 150 mA (rats)). […] Normally, in the dose 30 mg/kg b.w. the test is done in 1 mouse after 0.5 or 4 h, in the dose 100 mg/kg b.w.—in 3 mice, and in the dose 300 mg/kg b.w.—in 1 mouse.

neurotoxicity (rotarod) = test: Neurotoxicity test (TOX), rotarod, mice; assay type: in vivo
Description: as §1
It is performed with use of rotarod test. The animal is placed on a plastic rod (1 inch in diameter), rotating 6 rpm. The rod is placed on a level discouraging the animal to jump off. […] Neurotoxicity is stated if the animal cannot stay on the rod for 1 min. in any of 3 trials. Normally the test is performed in dose 30 mg/kg b.w. in 4 mice (0.5 h) and in 2 mice (4 h), in the dose 100 mg/kg b.w. in 8 mice (0.5 h) and in 4 mice (4 h) and in the dose 300 mg/kg b.w. in 4 mice (0.5 h) and 2 mice (4 h).

[2] = mice, dose 100 mg/kg b.w., time 0.5 h
[3] = mice, dose 300 mg/kg b.w., time 0.5 h
[4] = dose 100 mg/kg b.w., time 0.5 h
[5] = mice, dose 30 mg/kg b.w., time 0.5 h

| Structure (SMILES) | MES, No. of protected animals/No. of used animals ([1]; dose 30 mg/kg b.w., time 0.5 h) | TOX, No. of animals exhibiting motor impairment/no. of used animals (neurotoxicity (rotarod); [2]) | TOX, No. of animals exhibiting motor impairment/no. of used animals (neurotoxicity (rotarod); [3]) | MES, No. of protected animals/No. of used animals [1, 4] | TOX, No. of animals exhibiting motor impairment/no. of used animals (neurotoxicity (rotarod); [5]) | TOX, No. of animals exhibiting motor impairment/no. of used animals (neurotoxicity (rotarod); mice, dose 100 mg/kg b.w., time 4 h) | TOX, No. of animals exhibiting motor impairment/no. of used animals (neurotoxicity (rotarod); mouse, in vivo, 100 mg/kg) | TOX, No. of animals exhibiting motor impairment/no. of used animals (neurotoxicity (rotarod); mouse, in vivo, 300 mg/kg) | MES, No. of protected animals/No. of used animals ([1]; dose 300 mg/kg b.w., time 0.5 h) | MES, No. of protected animals/No. of used animals ([1]; dose 100 mg/kg b.w., time 4 h) |
| --- | --- | --- | --- | --- | --- | --- | --- | --- | --- | --- |
| CCC(O)CNCCOc1c(C)cccc1Cl (stereo not drawn) [Compound 25, R,S-1N-[(2-chlor-6-methylphenoxy)ethyl]amino-2-butanol] | 1/1 | 8/8 | 4/4 |  |  |  |  |  |  |  |
| CCC(CO)NCCOc1c(C)cccc1Cl.Cl (stereo not drawn) [Compound 26a, R,S-2N-[(2-chlor-6-methylphenoxy)ethyl]amino-1-butanol hydrochloride] | 1/1 | 8/8 | 4/4 | 1/1 | 3/4 | 1/4 |  |  |  |  |
| CC[C@H](CO)NCCOc1c(C)cccc1Cl.Cl [Compound 27a, R-(−)-2N-[(2-chlor-6-methylphenoxy)ethyl]amino-1-butanol hydrochloride] | 1/1 | 7/8 | 4/4 | 2/3 |  |  |  |  |  |  |
| CC[C@@H](CO)NCCOc1c(C)cccc1Cl.Cl [Compound 28a, S-(+)-2N-[(2-chlor-6-methylphenoxy)ethyl]amino-1-butanol hydrochloride] |  | 5/8 | 4/4 | 1/1 |  |  |  |  |  |  |
| Cc1cccc(Cl)c1OCCNC(C)(CO)CO [Compound 29, 2N-[(2-chlor-6-methylphenoxy)ethyl]amino-2-methyl-1,3-propandiol] |  |  |  | 2/3 |  |  | 4/8 | 4/4 |  |  |
| Cc1cccc(Cl)c1OCCNCC(O)c1ccccc1 (stereo not drawn) [Compound 31, R,S-2N-[(2-chlor-6-methylphenoxy)ethyl]amino-1-phenylethanol] | 1/1 | 8/8 | 4/4 | 3/3 |  |  |  |  | 1/1 |  |
| CCC(O)CNCCOc1ccc(Cl)cc1C (stereo not drawn) [Compound 34, R,S-1N-[(4-chlor-2-methylphenoxy)ethyl]amino-2-butanol] |  | 7/8 | 4/4 | 3/3 | 1/4 |  |  |  |  |  |
| CCC(CO)NCCOc1ccc(Cl)cc1C (stereo not drawn) [Compound 35, R,S-2N-[(4-chlor-2-methylphenoxy)ethyl]amino-1-butanol] |  | 8/8 | 4/4 | 3/3 |  |  |  |  |  |  |
| Cc1cc(Cl)ccc1OCCNC(C)(C)CO [Compound 36, 2N-[(4-chlor-2-methylphenoxy)ethyl]amino-2-methyl-1-propanol] |  |  | 4/4 | 3/3 |  |  |  |  |  |  |
| Cc1cc(C)c(C)c(OCCNC(C)CO)c1 (stereo not drawn) [Compound 38, R,S-2N-[(2,3,5-trimethylphenoxy)ethyl]amino-1-propanol] | 1/1 |  |  | 3/3 |  |  |  | 4/4 |  | 2/2 |
| CCC(CO)NCCOc1cc(C)cc(C)c1C (stereo not drawn) [Compound 39, R,S-2N-[(2,3,5-trimethylphenoxy)ethyl]amino-1-butanol] | 1/1 |  |  | 3/3 |  |  | 7/8 | 4/4 |  | 1/3 |
